This note sets out measurements from patent US11208468B2, “Methods and compositions for treating melanoma” (The Wistar Institute of Anatomy and Biology, priority 2016, dated 2021).

This experiment relates to melanoma patient PBMC samples WM35, WM3457 and 3451. Put plainly: Proliferative response, 3HTdR incorporation assay with peptide-pulsed monocytes. Type of experiment: cell-based, human. The conditions noted are these: monocytes pulsed 8 hours with 25 μM peptide, cultured with PBMC for 5 days; each sample assayed. The procedure:
The peptides were screened for T-helper sequences (Th): Peptide P8 is amino acids residues 608-622 of BRAF, i.e., […] (SEQ ID NO: 15). Peptide P9 is amino acids residues […] of BRAF, i.e., […] (SEQ ID NO: 16). Peptide P10 is amino acids residues […] of BRAF, i.e., […] (SEQ ID NO: 17). These peptides bind to HLA-DR alleles using computer algorithms, as disclosed in Example 1 below. Proliferative responses were determined by standard ^3HTdR incorporation assay.
A number of such peptides were assayed as follows: Adherent monocytes (5×10^4/well) were pulsed for 8 hours with synthetic peptides (25 μM): Peptide 8 (SEQ ID NO:15), Peptide 9 (SEQ ID NO:16), and Peptide 10 (SEQ ID NO: 17). At the end of incubation, excess peptides were removed and the monocytes were cultured with one of three melanoma patient PBMC samples labeled WM35, WM3457 and 3451 (1×10^5) for 5 days.
Data are expressed as mean cpm (triplicate determinations) plus SD (bar) of ^3HTdR incorporation.

As for “SHQFEQLSGSILWHA (listed as Homo sapiens) [Peptide 8]”, the “Proliferative response (3HTdR incorporation, mean cpm) versus control peptide” value is “Significantly (p<0.01) different values compared to control”.

In the case of “EDLTVKIGDFGLATV (listed as Homo sapiens) [Peptide 9]”, the “Proliferative response (3HTdR incorporation, mean cpm) versus control peptide” value is “Significantly (p<0.01) different values compared to control”.
